One assay concerns the target T1, X-box-binding protein 1 (Homo sapiens, UniProt P17861).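 Note: confirmatory dose-response counter-screen serving a CHOP assay.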
T1 sequence (P17861 whole entry): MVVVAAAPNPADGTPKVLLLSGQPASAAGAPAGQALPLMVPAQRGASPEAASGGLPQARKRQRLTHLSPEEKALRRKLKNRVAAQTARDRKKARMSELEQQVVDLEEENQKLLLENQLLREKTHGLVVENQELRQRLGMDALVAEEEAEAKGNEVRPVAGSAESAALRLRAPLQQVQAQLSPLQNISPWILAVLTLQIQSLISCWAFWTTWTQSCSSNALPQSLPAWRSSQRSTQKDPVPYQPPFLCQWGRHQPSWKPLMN
It is filed as functional, Cricetulus griseus.

Assay [1] has as its system HEK293. Description: EBV LMP1 TES2 canonical NF-kB signalling blockers – cell-based, HEK293, luciferase, cherry-pick, dose response (AID 588343). Format: functional. The settings on record: Homo sapiens.
For assay [2], the target named is T2, Heat shock factor protein 1 (Mus musculus, UniProt P38532).
T2 sequence (P38532 whole entry): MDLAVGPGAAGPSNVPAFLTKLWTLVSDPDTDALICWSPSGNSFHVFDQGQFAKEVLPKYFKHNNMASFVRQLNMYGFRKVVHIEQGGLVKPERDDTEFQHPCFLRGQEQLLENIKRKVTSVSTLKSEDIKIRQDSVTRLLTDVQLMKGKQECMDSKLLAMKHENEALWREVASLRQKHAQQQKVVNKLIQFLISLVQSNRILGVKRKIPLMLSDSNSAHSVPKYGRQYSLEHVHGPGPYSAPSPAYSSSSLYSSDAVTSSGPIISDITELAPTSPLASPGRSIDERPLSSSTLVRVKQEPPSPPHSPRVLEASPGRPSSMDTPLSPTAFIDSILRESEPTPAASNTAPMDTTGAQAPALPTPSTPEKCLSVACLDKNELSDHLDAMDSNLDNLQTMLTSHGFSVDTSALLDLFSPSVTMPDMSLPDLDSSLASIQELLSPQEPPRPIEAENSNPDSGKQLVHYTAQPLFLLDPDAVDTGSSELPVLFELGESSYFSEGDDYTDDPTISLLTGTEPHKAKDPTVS
Description: decrease of HSF1-responsive luciferase luminescence – cell-based, NIH3T3, dose retest, confirmation (AID 2382).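 Note: NIH3T3 fibroblasts with HSF1-driven luciferase reporter stressed by proteasome inhibitor MG132; luminescence from HSF1-driven luciferase expression after 8 hours of MG132 stress.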 Format: functional.

Assay [3] has as its target G-protein coupled receptor 55 (Homo sapiens, UniProt Q9Y2T6). Description: selective activators of receptor GPR55 – imaging, U2OS cells, beta-arrestin-GFP redistribution, primary screen (AID 1961). It is filed as functional.
The target of assay [4] is Protein-tyrosine kinase 2-beta (Homo sapiens, UniProt Q14289).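 Note: potency of inhibitors of PYK2 kinase phosphorylation of poly-GT substrate.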
Chain of Protein-tyrosine kinase 2-beta (Q14289 whole entry): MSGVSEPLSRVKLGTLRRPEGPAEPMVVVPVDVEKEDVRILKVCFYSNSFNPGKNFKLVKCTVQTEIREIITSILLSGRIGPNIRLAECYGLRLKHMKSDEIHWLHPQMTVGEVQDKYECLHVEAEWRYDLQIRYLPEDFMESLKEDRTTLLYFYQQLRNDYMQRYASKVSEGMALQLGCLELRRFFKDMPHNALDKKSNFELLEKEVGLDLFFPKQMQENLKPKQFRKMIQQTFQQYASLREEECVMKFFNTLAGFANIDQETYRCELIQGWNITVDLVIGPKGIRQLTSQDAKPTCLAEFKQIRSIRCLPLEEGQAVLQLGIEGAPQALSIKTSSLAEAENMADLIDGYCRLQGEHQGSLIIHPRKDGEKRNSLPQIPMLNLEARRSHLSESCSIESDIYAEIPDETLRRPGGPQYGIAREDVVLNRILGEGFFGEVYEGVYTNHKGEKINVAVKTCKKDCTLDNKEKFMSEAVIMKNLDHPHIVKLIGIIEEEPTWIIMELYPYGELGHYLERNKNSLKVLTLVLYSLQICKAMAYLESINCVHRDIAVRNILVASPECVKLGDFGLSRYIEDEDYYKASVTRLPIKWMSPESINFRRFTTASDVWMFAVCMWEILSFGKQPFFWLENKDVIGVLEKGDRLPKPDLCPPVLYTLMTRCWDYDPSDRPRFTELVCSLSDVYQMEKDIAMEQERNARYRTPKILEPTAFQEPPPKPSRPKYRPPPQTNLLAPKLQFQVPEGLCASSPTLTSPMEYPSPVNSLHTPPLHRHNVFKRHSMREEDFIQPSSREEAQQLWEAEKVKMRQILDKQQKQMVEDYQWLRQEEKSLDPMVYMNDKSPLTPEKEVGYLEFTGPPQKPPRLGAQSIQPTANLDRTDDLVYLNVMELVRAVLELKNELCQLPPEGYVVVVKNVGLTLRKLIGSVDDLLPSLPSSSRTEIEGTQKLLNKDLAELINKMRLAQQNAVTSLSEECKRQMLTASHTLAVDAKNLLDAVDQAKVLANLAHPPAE
Assay [5] can be described thus: IC50 of Artemis nuclease activity blockers – biochemical, fluorescence intensity, dose response (AID 720701).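 Note: Artemis endonuclease enzyme.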 It is filed as functional.
The next assay deals with T3, Estrogen receptor (Homo sapiens, UniProt P03372).
T3 sequence (P03372 whole entry): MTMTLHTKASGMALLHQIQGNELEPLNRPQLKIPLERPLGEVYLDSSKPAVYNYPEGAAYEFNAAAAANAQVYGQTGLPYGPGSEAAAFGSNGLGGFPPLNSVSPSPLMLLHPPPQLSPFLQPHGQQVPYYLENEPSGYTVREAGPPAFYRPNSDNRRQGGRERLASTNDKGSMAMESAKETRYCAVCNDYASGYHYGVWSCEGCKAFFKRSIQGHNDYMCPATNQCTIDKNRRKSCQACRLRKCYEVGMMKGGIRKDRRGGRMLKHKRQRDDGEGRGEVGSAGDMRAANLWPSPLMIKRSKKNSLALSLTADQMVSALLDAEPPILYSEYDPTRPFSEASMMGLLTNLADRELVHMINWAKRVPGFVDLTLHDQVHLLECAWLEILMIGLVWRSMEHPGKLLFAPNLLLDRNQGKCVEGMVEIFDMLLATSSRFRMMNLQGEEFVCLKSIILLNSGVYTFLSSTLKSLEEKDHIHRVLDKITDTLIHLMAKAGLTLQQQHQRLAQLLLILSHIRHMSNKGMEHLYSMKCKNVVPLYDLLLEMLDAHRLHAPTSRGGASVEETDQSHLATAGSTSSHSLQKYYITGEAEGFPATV

The next assay deals with T4, Bcl-2-like protein 10 (Homo sapiens, UniProt Q9HD36).
T4 sequence (Q9HD36 whole entry): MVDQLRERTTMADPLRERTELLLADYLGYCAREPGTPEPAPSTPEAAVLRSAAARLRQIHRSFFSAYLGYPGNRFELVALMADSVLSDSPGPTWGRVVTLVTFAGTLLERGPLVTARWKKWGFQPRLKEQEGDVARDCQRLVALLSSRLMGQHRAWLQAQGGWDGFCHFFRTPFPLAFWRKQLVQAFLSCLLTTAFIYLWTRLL
The assay can be described thus: Bcl-B/TR3 peptide binding disruption – biochemical, fluorescence polarization, FITC-TR3 peptide, selectivity assay for Bfl-1 inhibitor project, primary screen (AID 748).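 Note: fluorescence polarization from a fluorescein-labelled TR3 peptide binding purified Bcl-B.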

Assay [6] deals with T5, Estrogen receptor beta (Homo sapiens, UniProt Q92731). Description: blockers of SRC-3 recruitment to ERβ – biochemical, ELISA, streptavidin-HRP readout, orthogonal assay, confirmation (AID 1060). (An ELISA detects its analyte on a solid surface through an enzyme-linked reagent.)
T5 sequence (Q92731 whole entry): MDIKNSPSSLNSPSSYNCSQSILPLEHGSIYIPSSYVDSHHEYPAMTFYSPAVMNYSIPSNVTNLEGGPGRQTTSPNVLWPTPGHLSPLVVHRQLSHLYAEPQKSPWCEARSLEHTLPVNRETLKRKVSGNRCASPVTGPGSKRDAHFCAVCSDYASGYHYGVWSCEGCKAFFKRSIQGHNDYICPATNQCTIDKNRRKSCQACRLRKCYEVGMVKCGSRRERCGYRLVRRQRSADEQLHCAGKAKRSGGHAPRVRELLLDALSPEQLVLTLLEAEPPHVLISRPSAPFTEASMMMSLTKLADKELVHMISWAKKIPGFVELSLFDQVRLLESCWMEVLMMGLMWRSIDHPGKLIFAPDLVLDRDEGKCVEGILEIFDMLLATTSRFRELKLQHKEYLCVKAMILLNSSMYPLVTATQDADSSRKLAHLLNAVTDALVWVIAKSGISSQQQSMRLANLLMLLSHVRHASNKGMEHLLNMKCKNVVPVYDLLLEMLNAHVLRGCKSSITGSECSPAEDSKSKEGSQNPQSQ
Assay [7] concerns the target T5, Estrogen receptor beta.
Assay [8] deals with Nucleotide-binding oligomerization domain-containing protein 2 (Homo sapiens, UniProt Q9HC29). The assay can be described thus: PubChem AID 2334. It is filed as functional.
Chain of Nucleotide-binding oligomerization domain-containing protein 2 (Q9HC29 whole entry, the tested form may be a part): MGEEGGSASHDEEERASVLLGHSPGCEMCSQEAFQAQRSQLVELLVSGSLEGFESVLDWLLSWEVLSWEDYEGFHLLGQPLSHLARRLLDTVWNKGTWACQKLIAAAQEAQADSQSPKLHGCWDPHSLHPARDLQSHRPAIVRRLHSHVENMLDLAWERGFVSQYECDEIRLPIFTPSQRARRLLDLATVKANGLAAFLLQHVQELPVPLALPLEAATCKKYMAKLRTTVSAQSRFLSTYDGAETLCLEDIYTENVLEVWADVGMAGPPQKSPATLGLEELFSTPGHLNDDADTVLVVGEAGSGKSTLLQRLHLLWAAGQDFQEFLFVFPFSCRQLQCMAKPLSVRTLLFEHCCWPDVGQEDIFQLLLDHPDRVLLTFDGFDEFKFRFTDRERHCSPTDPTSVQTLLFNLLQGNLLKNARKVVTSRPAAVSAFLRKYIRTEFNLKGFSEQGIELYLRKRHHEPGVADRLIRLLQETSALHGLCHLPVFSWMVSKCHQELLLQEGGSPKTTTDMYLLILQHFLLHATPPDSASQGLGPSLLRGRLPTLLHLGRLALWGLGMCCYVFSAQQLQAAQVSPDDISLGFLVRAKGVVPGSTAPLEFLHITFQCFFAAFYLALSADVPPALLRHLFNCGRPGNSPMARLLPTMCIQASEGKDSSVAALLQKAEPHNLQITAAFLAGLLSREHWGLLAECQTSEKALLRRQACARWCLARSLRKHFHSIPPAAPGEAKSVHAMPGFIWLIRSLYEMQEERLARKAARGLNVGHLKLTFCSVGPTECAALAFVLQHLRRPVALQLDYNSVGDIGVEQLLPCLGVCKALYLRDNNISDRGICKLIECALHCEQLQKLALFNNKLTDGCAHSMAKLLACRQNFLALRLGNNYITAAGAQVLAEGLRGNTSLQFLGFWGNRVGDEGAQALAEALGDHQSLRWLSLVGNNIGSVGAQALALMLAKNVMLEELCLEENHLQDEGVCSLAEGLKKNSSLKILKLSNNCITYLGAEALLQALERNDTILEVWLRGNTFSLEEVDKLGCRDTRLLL
Assay [9] deals with HEK293. The assay can be described thus: cells. Conditions: Homo sapiens.
A further assay concerns the target Tumor necrosis factor (Homo sapiens, UniProt P01375). Description: analog potency on TNFa NF-kB signaling – cell-based, revised, SAR follow-up (AID 2337). It is filed as functional.
For assay [10], the target named is T6, Nucleotide-binding oligomerization domain-containing protein 1 (Homo sapiens, UniProt Q9Y239).
T6 sequence (Q9Y239 whole entry): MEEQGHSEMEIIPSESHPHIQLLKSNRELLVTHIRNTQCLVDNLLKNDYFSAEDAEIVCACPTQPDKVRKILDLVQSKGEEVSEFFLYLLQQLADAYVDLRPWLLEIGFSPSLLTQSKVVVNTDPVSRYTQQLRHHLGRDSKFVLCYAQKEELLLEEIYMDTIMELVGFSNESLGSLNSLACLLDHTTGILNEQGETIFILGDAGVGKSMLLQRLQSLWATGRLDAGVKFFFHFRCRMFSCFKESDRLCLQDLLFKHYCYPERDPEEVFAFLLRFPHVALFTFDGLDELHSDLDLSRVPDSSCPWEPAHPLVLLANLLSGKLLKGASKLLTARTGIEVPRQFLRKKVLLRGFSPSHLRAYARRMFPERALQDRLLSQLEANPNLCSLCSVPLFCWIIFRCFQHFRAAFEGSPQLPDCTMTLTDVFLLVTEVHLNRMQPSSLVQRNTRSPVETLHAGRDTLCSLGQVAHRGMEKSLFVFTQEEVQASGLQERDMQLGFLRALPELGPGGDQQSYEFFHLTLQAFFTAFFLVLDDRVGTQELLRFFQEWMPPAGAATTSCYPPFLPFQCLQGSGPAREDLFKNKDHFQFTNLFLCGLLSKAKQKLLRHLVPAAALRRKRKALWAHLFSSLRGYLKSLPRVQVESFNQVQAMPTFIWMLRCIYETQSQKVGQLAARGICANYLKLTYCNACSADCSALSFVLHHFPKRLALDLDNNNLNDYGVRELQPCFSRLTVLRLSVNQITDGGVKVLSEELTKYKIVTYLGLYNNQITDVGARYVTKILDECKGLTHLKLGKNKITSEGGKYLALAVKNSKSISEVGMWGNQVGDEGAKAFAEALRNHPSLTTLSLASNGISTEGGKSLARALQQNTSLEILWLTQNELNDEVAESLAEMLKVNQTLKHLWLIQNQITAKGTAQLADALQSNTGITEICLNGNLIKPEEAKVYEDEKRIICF
The assay can be described thus: blockers of NOD1 pathway activity – revised, SAR follow-up (AID 2333). It is filed as functional.

For orientation: AC50 means the concentration at which the activity in the assay is half-maximal. One may read the EC50 as the concentration that produces a half-maximal response. As usually defined, the IC50 is the concentration at which inhibition is half-maximal.

Active and inactive are the calls of the source.

Chain of Tumor necrosis factor (P01375 whole entry, the tested form may be a part): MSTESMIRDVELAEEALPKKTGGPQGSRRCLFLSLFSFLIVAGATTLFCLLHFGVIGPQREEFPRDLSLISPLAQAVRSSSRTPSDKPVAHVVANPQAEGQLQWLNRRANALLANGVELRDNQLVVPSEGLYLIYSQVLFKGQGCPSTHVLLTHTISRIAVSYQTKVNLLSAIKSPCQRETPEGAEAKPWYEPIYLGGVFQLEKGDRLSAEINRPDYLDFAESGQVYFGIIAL
Chain of G-protein coupled receptor 55 (Q9Y2T6 whole entry): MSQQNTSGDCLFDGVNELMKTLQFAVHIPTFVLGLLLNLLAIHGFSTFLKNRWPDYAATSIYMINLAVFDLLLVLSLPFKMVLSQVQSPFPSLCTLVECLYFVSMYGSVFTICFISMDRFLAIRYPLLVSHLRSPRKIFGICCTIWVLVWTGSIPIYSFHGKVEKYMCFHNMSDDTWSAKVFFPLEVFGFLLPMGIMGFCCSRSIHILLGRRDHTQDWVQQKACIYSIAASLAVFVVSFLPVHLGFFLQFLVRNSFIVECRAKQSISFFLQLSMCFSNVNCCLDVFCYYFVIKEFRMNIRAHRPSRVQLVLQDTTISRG

With `COc1ccc(CCNC(=O)c2nnn(-c3ccc4c(c3)OCCO4)c2N)cc1OC`, the “Absolute IC50 (XBP1)” value on X-box-binding protein 1 was 10 µM. For the same compound, the half-maximal activity concentration (AC50) in the assay with HEK293 [1] was 0.786 µM (active). Besides, the concentration giving a half-maximal response (EC50) in assay [2] is 0.44 µM (active).
As to `CC(=O)OC(c1nc2ccccc2c(=O)n1C1CC2(OC1=O)c1ccccc1N1C(=O)C(C)(C)N(O)C12)C(C)C` (stereo unspecified), the half-maximal effective concentration (EC50) in assay [3] was 7.35 µM (active).
Regarding `O=C(Nc1ccc(N2CCCC2)cc1)C(c1ccccc1)c1ccccc1`, the IC50 in assay [4] was 11.6 µM (not active); in [5], > 20 µM (inactive); at Estrogen receptor, 7.09 µM (active); on Bcl-2-like protein 10 it was 18.9 µM (active).
In the case of `O=C(COC(=O)CN1C(=O)c2ccccc2C1=O)Nc1ncc(Cl)cc1Cl`, the half-maximal inhibitory concentration (IC50) was < 77 µM (not active) against Estrogen receptor beta [6], 11.1 µM (active) on Estrogen receptor beta [7] and 41.5 µM (active) at Bcl-2-like protein 10.
`CN1/C(=C\C(=O)COC(=O)c2ccco2)C(C)(C)c2ccccc21`: the EC50 in [3] was 5.59 µM (active).
Take `Cc1cccn2c(=O)c3cc(C(=O)NCC4CCCO4)c(=N)n(Cc4cccnc4)c3nc12` (stereo unspecified): on Bcl-2-like protein 10, the IC50 is > 25 µM (inactive).
Regarding `Cc1ccccc1C(=O)Nc1nc2ccccc2n1Cc1ccc(Cl)cc1`, the IC50 (in assay [8]; in the assay with HEK293 [9]; at Tumor necrosis factor; in assay [10]) was > 20 µM (inactive) in each case.
As to `O=C(Nc1ccc(Cl)c(Cl)c1)c1ccc(CN2CCc3ccccc3C2)cc1`, the IC50 in assay [8] was > 20 µM (inactive); in the assay on HEK293 [9] it was 8.89 µM (active); on Tumor necrosis factor, > 20 µM (inactive); in assay [10], 0.891 µM (active).
For `O=C(C1CC1)N1CCc2cc(S(=O)(=O)N3CCN(c4ccc([N+](=O)[O-])cc4)CC3)ccc21`, the IC50 in assay [8] was 8.44 µM (active); with HEK293 [9], > 20 µM (inactive); at Tumor necrosis factor, 12.4 µM (active); in assay [10], 6.5 µM (active).
Consider `Cc1ccc(/C=N/NC(=O)CSCc2ccc(Cl)cc2)cc1`, for which the “Absolute IC50 (XBP1)” value at X-box-binding protein 1 was 10 µM.

These data come from ChEMBL document CHEMBL1201862, “PubChem BioAssay data set” (2004).
